A short description of the data set: solvent given as SMILES.
Setting [1] is: in c1cc(-n2c3ccccc3c3ccccc32)cc(-n2c3ccccc3c3ccccc32)c1.

Emission maximum data for 45 molecules are collected here from the Deep4Chem optical property database.

Molecule `O=C1Nc2ccccc2/C1=C/C(=O)c1ccc(Cl)cc1` showed an emission maximum (in C1CCCCC1) of 382 nm; an emission maximum (in C1COCCO1) of 394 nm; an emission maximum (in CC#N) of 398 nm; an emission maximum (in CC(C)(C)O) of 405 nm; an emission maximum (in CC(C)O) of 404 nm; an emission maximum (in CCCCCC) of 382 nm. In addition, the emission maximum is, setting by setting: (in CCCCO) 405 nm; (in CCOC(C)=O) 395 nm; (in CN(C)C=O) 398 nm; (in CO) 406 nm; (in ClCCl) 394 nm; (in O) 410 nm.
Regarding `CCCCCCN1C(=O)c2cccc3c(-c4ccc(-c5cc(-c6ccc(C)cc6)n(-c6ccccc6)n5)s4)ccc(c23)C1=O`, under “in ClCCl”, the emission maximum is recorded as 521 nm.
The molecule `CN1/C(=C/C=C(/C=C/C2=[N+](C)c3ccccc3C2(C)C)c2ccc(C(F)(F)F)cc2)C(C)(C)c2ccccc21` registered an emission maximum (in CCO) of 665 nm, an emission maximum (in CO) of 659 nm, an emission maximum (in CS(C)=O) of 665 nm and an emission maximum (in O) of 658 nm.
As to `COc1ccc2c(c1)c1cc(OC)ccc1n2-c1cc(Cl)c([C](c2c(Cl)cc(Cl)cc2Cl)c2c(Cl)cc(Cl)cc2Cl)c(Cl)c1`, the emission maximum (in C1CCCCC1) amounted to 728 nm.
As to `CN(C)c1ccc2c(c1)C(C)(C)C1=CC(=[N+](C)C)C=CC1=C2`, the emission maximum is, setting by setting: (in CO) 620 nm; (in O) 621 nm.
Regarding `N#Cc1cc(-n2c3ccccc3c3ncccc32)c(-n2c3ccccc3c3ncccc32)cc1C#N`, the emission maximum runs as follows: (in CC#N) 520.47 nm; (in CCCCCC) 443.72 nm; (in Cc1ccccc1) 450.7 nm; (in ClCCl) 476.51 nm; under setting [1], 477.27 nm.
As to `CCC1=C(C)C2C(c3ccc(-c4ccc(-c5nc6c7ccccc7c7ccccc7c6n5-c5ccc(C(C)(C)C)cc5)cc4)cc3)c3c(C)c(CC)c(C)n3[B-](F)(F)[N+]2=C1C` (stereo unspecified), the emission maximum (in ClC(Cl)Cl) is on record as 556 nm.
With `COC(=O)CCC1=CC(C#Cc2cccs2)=[N+]2C1=Cc1c(CCC(=O)OC)cc(C#Cc3cccs3)n1[B-]2(F)F`, the emission maximum (in ClCCl) was 681 nm.
Turning to `c1ccc(Cn2c3sccc3c3c4nsnc4c4c5ccsc5n(Cc5ccccc5)c4c32)cc1`, the emission maximum is recorded as 508 nm (in Cc1ccccc1) and 541 nm (in ClCCl).
Regarding `CC(C)(C)c1ccc2c(c1)c1cc(C(C)(C)C)ccc1n2-c1cccc(C(=O)c2cccc(-n3c4ccc(C(C)(C)C)cc4c4cc(C(C)(C)C)ccc43)n2)n1`, the emission maximum was 378.66 nm (in C1CCOC1), 381.64 nm (in Cc1ccccc1) and 383.6 nm (in ClCCl).
Turning to `COC(=O)/C=C/c1sc(-c2ccc(N(C)C)cc2)c(-c2cccnc2)c1N`, the emission maximum (in CC#N) was found to be 593 nm.
For `CCC1=C(C)C(=O)n2c1cc1c(CCC(=O)O)c(C)c(C)n1c2=O`, the emission maximum is on record as 540 nm (in CO), 510 nm (in CS(C)=O), 500 nm (in ClC(Cl)Cl) and 470 nm (in c1ccccc1).
For the molecule `c1cc2c3ccc[n+]4cccc(c5ccc[n+](c1)c25)c34`, the emission maximum runs as follows: (in CC#N) 442 nm; (in CS(C)=O) 443 nm; (in C[N+](=O)[O-]) 441 nm; (in O) 441 nm.
`CC(C)(C)NC(=O)c1cccc2ccc3c4cc(F)ccc4c4ccc(F)cc4c3c12` showed an emission maximum (in ClCCl) of 385 nm.
On the same count and under the same terms, the same measure for `CCOC(=O)c1c(-c2c(Cl)c3ccccc3oc2=O)nn(-c2ccccc2)c1C(=O)OCC`: 406 nm.
For the molecule `CCN(CC)c1ccc([N+]2=Cc3ccc4c5c(ccc4c3O[B-]2(c2ccccc2)c2ccccc2)C=[N+](c2ccc(N(CC)CC)cc2)[B-](c2ccccc2)(c2ccccc2)O5)cc1`, the emission maximum came to 627 nm (in Cc1ccccc1) and 644 nm (in ClCCl).
For the molecule `CC1CCC(=CS/C=C/c2ccc(/C=C/SC=C3CCC(C)CC3)cc2)CC1` (stereo unspecified), the emission maximum (in ClCCl) is given as 427 nm.
Turning to `N#Cc1cc(-c2ccc(N3c4ccccc4Oc4ccccc43)cc2)c(-c2ccc(N3c4ccccc4Oc4ccccc43)cc2)cc1C#N`, the emission maximum is, setting by setting: (in Cc1ccccc1) 577 nm; (in c1cc(-c2cccc(-n3c4ccccc4c4ccccc43)c2)cc(-n2c3ccccc3c3ccccc32)c1) 540 nm.
Molecule `O=S(=O)([O-])c1ccccc1/C=C/c1ccc(-c2nnc(-c3ccc(/C=C/c4ccccc4S(=O)(=O)[O-])cc3)o2)cc1` came in with an emission maximum (in C1CCOC1) of 415 nm, an emission maximum (in CC(C)=O) of 416 nm and an emission maximum (in CN(C)C=O) of 422 nm.
Where the note is “in ClCCl”, `COc1cc(-c2cnc(-c3ccncc3)o2)cc(OC)c1OC` gave an emission maximum of 465 nm.
Molecule `c1ccc2c3c(ccc2c1)-c1cccc2cc4ccccc4c-3c12` showed an emission maximum (in CCCCCCC) of 610 nm.
The molecule `COc1cccc(-c2nc3sc4ccccc4c3s2)c1` displayed an emission maximum (in CS(C)=O) of 412 nm.
In the case of `CCCC(=O)c1c2c(c(C(=O)CCC)c3c1OC(CC(=O)OC)(C(=O)O)O3)OCO2`, the emission maximum worked out at 542 nm (in CC#N); 603 nm (in CCO); 614 nm (in CO); 530 nm (in ClCCl); 637 nm (in O).
For the setting “in Cc1ccccc1”, `O=S(=O)(c1ccc(N(c2ccccc2)c2ccccc2)cc1)c1ccc(S(=O)(=O)c2ccc(N(c3ccccc3)c3ccccc3)cc2)cc1` yielded an emission maximum of 451 nm.
As for `CC1(C)c2ccccc2N(c2ccc(-c3ccc(C#N)nc3)cc2)c2ccccc21`, the emission maximum was determined as 488 nm (in Cc1ccccc1) and 490 nm (in N#Cc1ccc2c(c1)c1ccccc1n2-c1cccc(-n2c3ccccc3c3ccccc32)c1).
In turn, `O=C1c2ccccc2S(=O)(=O)c2ccc(-n3c4ccccc4c4ccccc43)cc21` had an emission maximum (in C1CCOC1) of 576 nm; an emission maximum (in CCCCCC) of 485 nm; an emission maximum (in Cc1ccccc1) of 535.5 nm; an emission maximum (in ClC(Cl)Cl) of 595.5 nm; an emission maximum (in ClCCl) of 609.5 nm.
With `c1ccc(-c2nnc(-c3ccccc3)n2-c2ccc(N3c4ccccc4N(c4ccccc4)c4ccccc43)cc2)cc1`, the emission maximum turned out to be 495 nm (in Cc1ccccc1) and 474 nm under setting [1].
Where the note is “in ClCCl”, `Cc1cc2c3ccccc3sc2c2[nH]c3ccccc3c12` had an emission maximum of 365 nm.
`C[Si](C)(C)c1ccc(C#N)c2ccccc12` yielded an emission maximum (in C1CCCCC1) of 333 nm.
As for `CN(C)c1ccc(C2=Nc3sc4cc(C(F)(F)F)ccc4[n+]3[B-](F)(F)O2)cc1`, the emission maximum reads like this: (in C1CCOC1) 486 nm; (in CC#N) 500 nm; (in CC(C)=O) 495 nm; (in Cc1ccccc1) 460 nm; (in ClCCl) 478 nm.
Molecule `c1ccc2c(c1)CCc1ccccc1N2` registered an emission maximum (in CC#N) of 354 nm, an emission maximum (in CCCCCC) of 329 nm and an emission maximum (in CO) of 359 nm.
As to `CCN(CC)c1ccc2cc(C#N)c(=O)oc2c1`, the emission maximum (in ClCCl) worked out at 460 nm.
As for `Cc1c2ccc(=[N+]3CCCCC3)cc-2oc2cc(N3CCCCC3)ccc12`, the emission maximum (in ClCCl) turned out to be 570 nm.
`COc1cc2c(cc1-c1ccc(C(F)(F)F)cc1)Cc1c3c(c4c(c1-2)-c1cc(OC)c(-c2ccc(C(F)(F)F)cc2)cc1C4)C(=O)N(CCC(C)C)C3=O`: where the note is “in C1CCOC1”, the emission maximum was 458 nm.
`CCOC(=O)c1ccc(C2=Cc3cc4ccccc4cc3P2(=O)c2ccccc2)cc1` (stereo unspecified) showed an emission maximum (in ClCCl) of 432 nm.
`N#Cc1nc(N(Cc2ccc(Cl)cc2)Cc2ccc(Cl)cc2)c(C#N)nc1N(Cc1ccc(Cl)cc1)Cc1ccc(Cl)cc1`: the emission maximum (in ClC(Cl)Cl) was 577 nm.
For the molecule `C[SiH](C)c1cccc2ccccc12`, the emission maximum (in C1CCCCC1) is recorded as 328 nm.
The molecule `CC(C)(C)c1cc(-n2c(-c3ccc(C(=C(c4ccccc4)c4ccccc4)c4ccccc4)cc3)cc3c2cc(-c2ccc(C(=C(c4ccccc4)c4ccccc4)c4ccccc4)cc2)n3-c2cc(C(C)(C)C)cc(C(C)(C)C)c2)cc(C(C)(C)C)c1` returned an emission maximum (in ClCCl) of 586 nm.
Regarding `CCOC(=O)C1=CN(c2ccccc2)C=C(C(=O)OCC)C1`, the emission maximum is 426 nm (in C1CCOC1) and 441 nm (in CO).
For `c1ccc2c(c1)[nH]c1cccnc12`, the emission maximum is 341 nm (in C1CCCCC1); 352 nm (in C1CCOC1); 367 nm (in C1COCCO1); 385 nm (in CCO); 371 nm (in CN(C)C=O); 350 nm (in Cc1ccccc1). In addition, the emission maximum is, setting by setting: (in ClC(Cl)Cl) 369 nm; (in Clc1ccccc1) 364 nm.
Molecule `c1ccc2c(c1)-c1c(cc3ccc4cccc5ccc1c3c45)C21c2cc(-c3ccc4ccc5cccc6ccc3c4c56)ccc2-c2ccc(-c3ccc4ccc5cccc6ccc3c4c56)cc21` yielded an emission maximum (in ClC(Cl)Cl) of 424 nm.
Turning to `O=Cc1nc2ccc(C#Cc3ccc(N(c4ccccc4)c4ccccc4)cc3)cc2s1`, the emission maximum (in Cc1ccccc1) worked out at 519 nm.
In the case of `CCN(CC)c1ccc2cc(-c3cc(SC)c(C#N)c(=O)o3)c(=O)oc2c1`, the emission maximum reads like this: (in C1CCOC1) 558 nm; (in CC#N) 578 nm; (in CC(C)=O) 573 nm; (in CCOC(C)=O) 554 nm; (in CN(C)C=O) 585 nm; (in CO) 582 nm. Also, the emission maximum by setting is: (in CS(C)=O) 593 nm; (in Cc1ccccc1) 533 nm; (in ClC(Cl)Cl) 547 nm; (in ClCCl) 560 nm.
Consider `Fc1ccc(-c2ccc(-c3cc(-c4ccccn4)nc(-c4ccccn4)c3)cc2)c(F)c1`, for which the emission maximum (in ClCCl) is given as 358 nm.
In the case of `CCN(CC)c1ccc(-n2cccc2)cc1`, the emission maximum was determined as 337 nm (in CC#N) and 326 nm (in CCCCCC).
